Test results taken from PubChem BioAssay (NCI).
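Results reflect a 48-hour exposure of cells in 96-well plates to compound at five concentrations. Abbreviation: GI50, concentration required for 50% inhibition of growth. TGI: total growth inhibition.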

Columns and labels:
Assay in all cases: NCI tumour cell line growth inhibition, 48 h
MOLT-4 leukemia = test system: MOLT-4 leukemia
SW-620 colon = test system: SW-620 colon
HCT-15 colon = test system: HCT-15 colon
RXF 393 renal = test system: RXF 393 renal
HS 578T breast = test system: HS 578T breast
A549 NSCLC = test system: A549 NSCLC
NCI/ADR-RES ovarian = test system: NCI/ADR-RES ovarian
SK-MEL-5 melanoma = test system: SK-MEL-5 melanoma
SR leukemia = test system: SR leukemia
HOP-62 NSCLC = test system: HOP-62 NSCLC

SMILES	GI50 (MOLT-4 leukemia)	TGI (MOLT-4 leukemia)	GI50 (SW-620 colon)	TGI (SW-620 colon)	GI50 (HCT-15 colon)	TGI (HCT-15 colon)	GI50 (RXF 393 renal)	TGI (RXF 393 renal)	GI50 (HS 578T breast)	TGI (HS 578T breast)	GI50 (A549 NSCLC)	TGI (A549 NSCLC)	GI50 (NCI/ADR-RES ovarian)	TGI (NCI/ADR-RES ovarian)	GI50 (SK-MEL-5 melanoma)	TGI (SK-MEL-5 melanoma)	GI50 (SR leukemia)	TGI (SR leukemia)	GI50 (HOP-62 NSCLC)	TGI (HOP-62 NSCLC)
COc1ccc(C(=O)c2cc(OC)c(OC)c(OC)c2)cc1/C=C/C(=O)c1ccc(O)cc1	0.841 µM	> 100 µM	2.51 µM	10.2 µM	2.15 µM	7.42 µM	3.57 µM	14.9 µM	18.3 µM	> 100 µM	18.7 µM	> 100 µM	2.68 µM	8.09 µM	1.46 µM	2.98 µM	0.433 µM	> 100 µM	21.1 µM	53.4 µM
Clc1ccc(Nc2ccnc(NCCNc3ccnc4cc(Cl)ccc34)n2)cc1	1.49 µM	3.55 µM	1.14 µM	2.64 µM	1.03 µM	2.36 µM			1.83 µM	4.38 µM	1.53 µM	3.1 µM	1.61 µM	3.51 µM	1.31 µM	2.59 µM	1.39 µM	3.43 µM	1.27 µM	2.66 µM
OCc1ccc(N(Cc2ccc(F)cc2)C2CCC2)cc1Cl	15.7 µM	36.7 µM	0.744 µM	16.8 µM	10.9 µM	25.7 µM	3.57 µM	16.6 µM	19 µM	45.4 µM	2.04 µM	17.9 µM	12.7 µM	27.8 µM	9.11 µM	21.8 µM	15.3 µM	35 µM	2.05 µM	17.5 µM
O=C1NC(=O)C2=C1CCC2O (stereo not given)		> 100 µM		> 100 µM		> 100 µM		> 100 µM		> 100 µM		> 100 µM		> 100 µM				> 100 µM		> 100 µM
COc1ccc2c(CN3CCC(CO)CC3)cc3cc4c(cc3c2c1)OCO4	0.175 µM	1.44 µM	0.141 µM	11 µM	0.17 µM	3.49 µM	0.0843 µM	0.847 µM	0.5 µM	12.4 µM			0.255 µM	10.4 µM	0.172 µM	0.495 µM	0.0666 µM	0.712 µM	0.272 µM	2.03 µM
O=C1C(Cl)=C(Oc2ccccc2)C(=O)c2ccccc21	4.09 µM	30.7 µM	1.81 µM	3.57 µM	12.1 µM	31.5 µM	2.75 µM	6.84 µM	2.62 µM	13 µM	21 µM	51.8 µM	7.75 µM	37.9 µM	6.26 µM	17.1 µM	4.49 µM	39.1 µM	8.55 µM	22.2 µM
O=C(CSc1nc2ccc([N+](=O)[O-])cc2[nH]1)Nc1cccc(C(F)(F)F)c1	2.71 µM	19.5 µM	3.13 µM	14.6 µM	2.74 µM	12.7 µM	2 µM	8.02 µM	2.45 µM	10.7 µM	2.3 µM	12.7 µM	2.29 µM	8.75 µM	1.03 µM	2.57 µM	3.02 µM	> 43.7 µM	2.56 µM	10.8 µM
C=C1C(=O)O[C@H]2[C@H]1CC/C(COC(=O)/C=C/c1cccnc1)=C\CC[C@@]1(C)O[C@@H]21	1.75 µM	4.9 µM	0.467 µM	2.35 µM	1.11 µM	2.71 µM	0.75 µM	2.15 µM	4.22 µM	36 µM	9.86 µM	23.6 µM	3.3 µM	14.1 µM	3.37 µM	12.6 µM	1.57 µM	7.01 µM	11.5 µM	24.6 µM
COc1ccc(/C=C/C(=O)/C=C(/C=C/c2ccc(OC)c(OC)c2)OB(F)F)cc1OC	0.449 µM	6.17 µM	0.373 µM	2.33 µM	0.286 µM	1.12 µM	0.34 µM	1.31 µM	1.31 µM	8.15 µM	2.24 µM	7.62 µM	0.529 µM	> 100 µM	1.49 µM	3.23 µM	0.287 µM	1.69 µM	2.46 µM	7.05 µM
Nc1nc(SCC(=O)O)[nH]c(=O)c1N		> 100 µM		> 100 µM		> 100 µM		> 100 µM		> 100 µM		> 100 µM		> 100 µM		> 100 µM		77.7 µM		> 100 µM
